Experiments:
LNCaP cells = test: Cellular uptake and internalization in LNCaP cells; format: cell-based
Protocol: LNCaP cells (1 × 10^5 cells/well) were seeded into 24-well plates and incubated for 72 h. Cells were treated with 1nM [^64Cu]Cu-NOTA-TP-PSMA or control monomers ([^64Cu]Cu-NOTA-TP and [^64Cu]Cu-NOTA-PSMA), each containing 0.1 MBq of radioactivity in RPMI-1640 medium.
Uptake and internalization were assessed at multiple time points (30 min to 24 h). At each timepoint, cells were washed with cold PBS, detached with trypsin, and counted using a hemocytometer. For internalization studies, surface-bound radioactivity was removed using 50 mM glycine-HCl buffer (pH 2.2) for 5 min, followed by additional PBS washes.
To investigate the internalization mechanism, parallel experiments were conducted at 4 °C to evaluate passive versus active uptake. Receptor specificity was assessed via blocking assays using 1 µM ^natCu-NOTA-TP-PSMA (1000-fold excess) co-incubated with 1 nM radiolabeled tracer. Post-incubation, intracellular radioactivity was quantified using a HIDEX gamma counter. All results were normalized to 10^6 cells and expressed as percent counts per minute per million cells (%CPM/10^6 cells).

HEK-293 cells = test: Nuclear localization in HEK-293 cells; format: cell-based, human
Protocol: To assess nuclear localization, LNCaP and HEK-293 cells were incubated with 1 MBq of [^64Cu]Cu-NOTA-TP-PSMA 1 for 24, 48, and 72 h. Nuclear extraction was performed following a previously established protocol. Following incubation, cells were lysed and fractionated using cytoskeletal buffer to isolate nuclear components. Nuclear and cytoplasmic radioactivity were measured using a HIDEX automatic gamma counter. Data were used to evaluate time-dependent nuclear accumulation of the tracer.

O=C(O)CC[C@H](NC(=O)N[C@@H](CCCCNC(=O)[C@@H](Cc1ccc2ccccc2c1)NC(=O)C1CCC(CNC(=O)C(CCCCNC(=O)c2cc3[n+]4c(c2)-c2cccc[n+]2[Pt-2]4([Cl])[n+]2ccccc2-3)NC(=O)COCCOCCNC(=O)CN2CCN3CCN(CC2)CC(=O)[O][64Cu][O]C(=O)C3)CC1)C(=O)O)C(=O)O (stereo partly shown) [[^64Cu]Cu-NOTA-TP-PSMA 1]
internalization fold greater in LNCaP than HEK-293 (LNCaP cells; 24 h): approximately 6 fold
uptake fold greater in LNCaP than HEK-293 (LNCaP cells; 24 h): approximately 8 fold
fold decrease of internalization/uptake at 4 °C versus 37 °C (LNCaP cells; LNCaP): ~ 10 fold
Internalization at 4 °C (LNCaP cells; LNCaP, 4 °C, 24 h): 3.9 ± 0.5 %CPM/10^6 cells
Internalization (LNCaP cells; LNCaP, 24 h, 37 °C, 1 nM): 44.9 ± 7.3 %CPM/10^6 cells
Uptake (LNCaP cells; LNCaP, 24 h, 37 °C, 1 nM): 65.9 ± 8.6 %CPM/10^6 cells
fold decrease of internalization/uptake at 4 °C versus 37 °C (LNCaP cells; LNCaP, listed as [^64Cu]Cu-NOTA-TP-PSMA): > 10 fold
Uptake (LNCaP cells; Table S1, LNCaP, 1 h): 16.52 ± 5.38 %ID/10⁶ cells
Uptake blockage (LNCaP cells; Table S1, LNCaP, 1 h, 1 µM natCu-NOTA-TP-PSMA (1000-fold excess)): 11.06 ± 5.93 %ID/10⁶ cells
Uptake blockage (LNCaP cells; Table S1, LNCaP, 2 h, 1000-fold excess blocking): 16.36 ± 7.23 %ID/10⁶ cells
Uptake (LNCaP cells; Table S1, LNCaP, 4 h): 44.61 ± 16.49 %ID/10⁶ cells
Uptake blockage (LNCaP cells; Table S1, LNCaP, 4 h, 1000-fold excess blocking): 18.70 ± 10.46 %ID/10⁶ cells
Uptake (LNCaP cells; Table S1, LNCaP, 20 h): 62.88 ± 9.10 %ID/10⁶ cells
Uptake blockage (LNCaP cells; Table S1, LNCaP, 20 h, 1000-fold excess blocking): 30.68 ± 11.43 %ID/10⁶ cells
Uptake (LNCaP cells; Table S1, LNCaP, 24 h): 65.87 ± 8.37 %ID/10⁶ cells
Uptake blockage (LNCaP cells; Table S1, LNCaP, 24 h, 1000-fold excess blocking): 37.00 ± 13.09 %ID/10⁶ cells
Internalization LNCaP (LNCaP cells; Table S2, 1 h): 11.91 ± 5.75 %ID/10⁶ cells
Uptake LNCaP (LNCaP cells; Table S2, 1 h): 16.52 ± 5.53 %ID/10⁶ cells
Internalization LNCaP (LNCaP cells; Table S2, 2 h): 17.07 ± 6.19 %ID/10⁶ cells
Uptake LNCaP (LNCaP cells; Table S2, 2 h): 28.67 ± 9.74 %ID/10⁶ cells
Internalization LNCaP (LNCaP cells; Table S2, 4 h): 30.27 ± 8.92 %ID/10⁶ cells
Uptake LNCaP (LNCaP cells; Table S2, 4 h): 44.61 ± 16.99 %ID/10⁶ cells
Internalization LNCaP (LNCaP cells; Table S2, 20 h): 42.49 ± 9.41 %ID/10⁶ cells
Uptake LNCaP (LNCaP cells; Table S2, 20 h): 62.88 ± 9.37 %ID/10⁶ cells
Internalization LNCaP (LNCaP cells; Table S2, 24 h): 44.94 ± 7.32 %ID/10⁶ cells
Uptake LNCaP (LNCaP cells; Table S2, 24 h): 65.87 ± 8.61 %ID/10⁶ cells
fold higher internalization compared to [64Cu]Cu-NOTA-PSMA (LNCaP cells; cancer cells (LNCaP), 24 h): 2.7 fold
fold higher internalization compared to [64Cu]Cu-NOTA-TP (LNCaP cells; cancer cells (LNCaP), 24 h): 1.2 fold
Nuclear uptake HEK-293 (HEK-293 cells; Table S4, 24 h): 0.08 ± 0.05 %ID/10⁶ cells
Nuclear uptake HEK-293 (HEK-293 cells; Table S4, 48 h): 0.15 ± 0.06 %ID/10⁶ cells
Nuclear uptake HEK-293 (HEK-293 cells; Table S4, 72 h): 0.85 ± 0.84 %ID/10⁶ cells

— publication PMC12692291, “Development and In Vitro Evaluation of [^64Cu]Cu-NOTA-TP-PSMA, a Novel Radiotheranostic Agent Against Prostate Cancer” (International Journal of Molecular Sciences, 2025)
